Experiment in all cases: NCI tumour cell line growth inhibition, 48 h
The subject of assay [1] is NCI-H522 lung.
Assay [2] has as its system SN12C renal.
For assay [3], the system named is SK-OV-3 ovarian.
For assay [4], the system named is HCT-15 colon.
Assay [5] relates to KM12 colon.
Assay [6] deals with SF-268 CNS.
In assay [7] the test system is NCI-H460 lung.
For assay [8], the system named is IGROV1 ovarian.
The test system of assay [9] is 786-0 renal.
The subject of assay [10] is UACC-257 melanoma.

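Exposure lasted 48 hours, with cells grown in 96-well plates and compounds tested at five concentrations. Abbreviation: GI50, concentration required for 50% inhibition of growth. Definition used: TGI = concentration required for complete inhibition of growth.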

For `COc1ccc2cc(C(=O)N3CCC([C@@H](C)C(=O)NCc4ccc5c(c4)OCO5)CC3)[nH]c2c1`, the GI50 in assay [1] is above 100 µM; in [2], above 100 µM; in [3] it was above 100 µM; in [4], above 100 µM; in [5] it was above 100 µM; in assay [6], 77.3 µM. Moreover, the GI50 in [7] was above 100 µM; in assay [8] it was above 100 µM; in assay [9], 36.7 µM. In addition, the TGI in assay [1], in assay [2], in assay [3], in assay [4], in assay [5] and in assay [6] was above 100 µM each time. The TGI in [7], in [8] and in assay [9] was above 100 µM throughout.

Regarding `OCC1CC2C=CCC(C2)C1` (stereo unspecified), the TGI in assay [1], in assay [2], in [10], in assay [3], in assay [5] and in assay [6] was above 100 µM each time. Moreover, the TGI in assay [7], in assay [8] and in assay [9] was above 100 µM each time.

With `O=C(N/C(=C\c1cccc([N+](=O)[O-])c1)c1nc2c3c(ccc2[nH]1)C(=O)c1ccccc1C3=O)c1ccccc1`, the TGI is above 100 µM in [1]; above 100 µM in [2]; 78 µM in assay [3]; above 100 µM in assay [4]; above 100 µM in [5]; above 100 µM in [6]. Also, the TGI in assay [7] and in assay [9] was above 100 µM throughout.

Take `CCCC[C@H](CCc1ccccc1)N(C(=O)OC)N1CCC[C@H]1COC`: the TGI in [1] worked out at 28.1 µM; in [2], 32.7 µM; in [10] it was 36.2 µM; in assay [3], 60.2 µM; in assay [5] it was 35.9 µM; in [6], 43 µM. Also, the results for the TGI in [7], in [8] and in assay [9] were 31.6 µM, 56.8 µM and 45.2 µM, respectively.

As to `Cc1cc2[nH]c(=O)c3c4ncccc4cn3c2cc1C`, the GI50 in assay [2] was 3.45 µM; in [3], 6.62 µM; in [5] it was 3.17 µM; in assay [6], 3.44 µM; in assay [7], 2.17 µM; in assay [8], 2.75 µM. For the same compound, the GI50 in assay [9] is 3.06 µM. Also, the TGI is above 100 µM in [2]; 73.7 µM in assay [3]; above 100 µM in assay [5]; above 100 µM in [6]; 6.2 µM in [7]; above 100 µM in [8]. This compound also came in with a TGI in [9] of 8.42 µM.

Take `CSc1ccc(Cc2cc(C(C)(C)C)cc(C(C)(C)C)c2O)cc1`: the TGI in assay [2] came out at 28.6 µM; in assay [10], 28.2 µM; in assay [3], 42.4 µM; in [4], 27.6 µM; in assay [5], 23.4 µM; in [6], 29.7 µM. In addition, the TGI in [7] came out at 27.2 µM; in assay [8], 26.7 µM; in assay [9] it was 30.4 µM.

As for `CCCCSC1CCSc2c1ccc1ccccc21` (stereo unspecified), the TGI in [3], in assay [4], in assay [5], in assay [8] and in [9] was above 100 µM throughout.

For the compound `N#Cc1ccc2[nH]cc(Cc3c[nH]c4ccc(C#N)cc34)c2c1`, the GI50 is 7.45 µM in assay [1]; 17 µM in [2]; 10.1 µM in [10]; 13.5 µM in assay [4]; 9.88 µM in [5]; 11.5 µM in [6]. In addition, the GI50 in assay [7] is 9.16 µM; in assay [8], 12.3 µM; in [9], 13.4 µM. Also, the TGI was 17.4 µM in [1]; above 50 µM in [2]; 23.4 µM in assay [10]; 42.2 µM in [4]; 20.1 µM in assay [5]; 31.7 µM in assay [6]. Besides, the results for the TGI in assay [7], in [8] and in [9] were 23.5 µM, 35.7 µM and 38 µM, respectively.

On to `Nc1ccc(C(=O)CC2(O)C(=O)Nc3ccccc32)cc1` (stereo unspecified), for which the TGI in [1], in assay [2], in assay [10], in assay [3], in [4] and in assay [6] was above 100 µM each time. Further, the TGI in assay [7], in [8] and in assay [9] was above 100 µM throughout.

As to `N[C@@H](Cc1c[nH]c2ccccc12)C(=O)NC1CCN(Cc2c[nH]c3ccc(Cl)cc23)CC1`, the GI50 was 10 µM in assay [1]; 15.3 µM in [2]; 14.6 µM in assay [3]; 16.2 µM in [4]; 4.6 µM in assay [5]; 7.74 µM in [6]. Also, the figures for the GI50 in assay [7], in assay [8] and in [9] were 4.71 µM, 8.78 µM and 11.4 µM, respectively. The TGI in [1] amounted to 22.7 µM; in assay [2], 30.4 µM; in [3], 28.1 µM; in assay [4] it was 31 µM; in assay [5], 16.9 µM; in assay [6], 22 µM. The TGI in assay [7] was found to be 16 µM; in assay [8] it was 23.4 µM; in assay [9], 24.9 µM.

Turning to `COc1ccc(OC)c(-c2cc(-c3ccc(Cl)cc3)nn2-c2ccccc2)c1`, the GI50 is 12.6 µM in assay [1]; 23.9 µM in [2]; 6.45 µM in assay [10]; 34.2 µM in assay [4]; 23.1 µM in assay [5]; 18.2 µM in [6]. Further, the GI50 was 33.8 µM in [7], 59.5 µM in assay [8] and 17.3 µM in assay [9]. Further, the TGI was above 100 µM in [1]; 69.6 µM in assay [2]; 49.1 µM in assay [10]; above 100 µM in [4]; above 100 µM in assay [5]; 57.8 µM in [6]. Further, the TGI in assay [7] was above 100 µM; in assay [8], above 100 µM; in assay [9] it was 57.7 µM.

`CC(C)(C)c1cc[n+](C[n+]2ccc(C(C)(C)C)cc2)cc1`: the TGI in assay [1], in [2], in assay [3], in assay [4], in [5] and in [6] was above 100 µM throughout. Besides, the TGI in [7], in [8] and in assay [9] was above 100 µM throughout.

Turning to `Cc1ccc(S(=O)(=O)NC(Cc2ccccc2)C(=O)CCl)cc1` (stereo unspecified), the TGI in [1] worked out at 21.4 µM; in assay [2], 25.3 µM; in assay [10] it was 24.9 µM; in assay [3], 47 µM; in assay [4], 31.6 µM; in assay [6], 31.4 µM. Also, the TGI in assay [7] was 29.3 µM; in [8], 28.8 µM; in [9], 27.8 µM.

Turning to `C=C1C2CC(OC(C)=O)C3(C)C(c4ccoc4)OC(=O)[C@@H](O)[C@]13OC1C[C@H](OC(C)=O)C(C)(C)[C@H](C(O)C(=O)OC)[C@]12C` (stereo partly specified), the TGI in [2], in assay [3], in assay [4], in [5], in assay [7] and in assay [8] was above 100 µM in each case. Besides, the TGI in [9] was above 100 µM.

Regarding `CC(=O)O[C@H]1CC[C@@]2(C)C(=CC[C@H]3C(CC#N)[C@@](C)(C#N)CCC32)C1` (stereo partly specified), the TGI in [2], in assay [10], in assay [3], in assay [4], in [5] and in [6] was above 100 µM each time. Besides, the TGI in assay [7], in assay [8] and in assay [9] was above 100 µM each time.

For `N#Cc1c(N)c(C(=O)c2ccc3c(c2)OCCO3)n2c1CCCC2`, the GI50 is 0.58 µM in [1]; 6.13 µM in assay [2]; 5.47 µM in assay [3]; 1.04 µM in assay [4]; 1.37 µM in assay [5]; 7.46 µM in assay [6]. Also, the GI50 in assay [7] is 3.19 µM; in assay [8], 6.92 µM; in assay [9] it was 5.31 µM. The TGI was above 100 µM in assay [2]; above 38.3 µM in [3]; above 100 µM in [4]; above 100 µM in assay [5]; above 100 µM in assay [6]; above 100 µM in assay [7]. The TGI in assay [8] and in assay [9] was above 100 µM throughout.

Take `COc1ccc(NC(=O)c2ccc(C(F)(F)F)nc2Nc2ccc(Cl)cc2C)cc1Cl`: the GI50 was 3.53 µM in assay [1]; 3.65 µM in [2]; 10.8 µM in assay [10]; 4.67 µM in assay [3]; 7.12 µM in assay [4]; 6.03 µM in assay [5]. Also, the GI50 was 5.4 µM in assay [6], 2.9 µM in assay [7] and 9.41 µM in [9]. Besides, the TGI worked out at 15.4 µM in assay [1]; 14 µM in assay [2]; 24 µM in assay [10]; 18.6 µM in assay [3]; 20.5 µM in assay [4]; 28 µM in assay [5]. The TGI was determined as 21.3 µM in [6], 12.1 µM in assay [7] and 23.1 µM in assay [9].

In the case of `COc1nc(NC2OC(COC(C)=O)C(OC(C)=O)C(OC(C)=O)C2OC(C)=O)c(N=C(C)C(C)=O)c(=O)n1C` (stereo unspecified), the TGI in assay [2], in [10], in assay [3], in assay [4], in assay [5] and in [7] was above 100 µM each time. Besides, the TGI in assay [8] and in assay [9] was above 100 µM in each case.

Consider `Cc1cc(C)c([I+]c2c(C)cc(C)cc2C)c(C)c1`, for which the GI50 was 0.351 µM in assay [1]; 0.301 µM in assay [2]; 0.296 µM in assay [10]; 1.14 µM in assay [3]; 2.15 µM in assay [4]; 0.615 µM in assay [6]. In addition, the GI50 in assay [7] is 0.846 µM; in assay [9], 0.749 µM. Moreover, the TGI in [1] was determined as 1.45 µM; in assay [2], 1.21 µM; in assay [10], 1.09 µM; in [3], 2.37 µM; in assay [4] it was 6.76 µM; in assay [6], 2.23 µM. Further, the TGI in assay [7] was 2.3 µM; in assay [9], 2.11 µM.

Consider `C=C(C)[C@@H]1C/C=C(/COC(C)=O)CC[C@H]2O[C@@]2(C)CC/C=C(\C)CC1`, for which the GI50 in [1], in assay [2], in [3], in assay [4], in assay [5] and in assay [6] was above 100 µM each time. For the same compound, the GI50 in assay [7] is above 100 µM; in assay [8] it was above 100 µM; in [9], 67.9 µM. Besides, the TGI in [1], in [2], in [3], in [4], in assay [5] and in [6] was above 100 µM in each case. Moreover, the TGI in [7], in assay [8] and in assay [9] was above 100 µM throughout.

With `Cn1nc(-c2ccccc2)c2c(/C=C/c3ccc(F)cc3)onc2c1=O`, the TGI in [1] is 51.1 µM; in [2], above 100 µM; in [3], above 100 µM; in assay [4], above 100 µM; in assay [6] it was above 100 µM; in [7] it was above 100 µM. Further, the TGI in [8] and in assay [9] was above 100 µM each time.

With `CCCCCCCCCCNC(=S)OC`, the TGI in assay [1] is 58.7 µM; in assay [2], above 100 µM; in assay [10], 83.8 µM; in [3], above 100 µM; in [4], 86.7 µM; in assay [6], above 100 µM. Also, the TGI in assay [7], in assay [8] and in assay [9] was above 100 µM each time.

For `CC(=O)N(N=O)c1ccc(N(N=O)C(C)=O)cc1`, the TGI in assay [1], in [2], in [3], in [4], in assay [6] and in [7] was above 100 µM throughout. The TGI in [8] and in [9] was above 100 µM each time.

(Values after PubChem BioAssay (NCI).)
